Patent US20240368174A1, “Antiviral Heterocyclic Compounds” (Enanta Pharmaceuticals, Inc., priority 2023, published 2024)
pEC50: −log10 of the molar value.

Assays:
[1] = system: genotype A, “Long” strain RSV; test: RSV-A assay (CPE, ATPlite readout in Hep-2 cells); format: cell-based, Human respiratory syncytial virus; conditions: human respiratory syncytial virus, activity class
Source text: Hep-2 cells, (originally derived from tumors grown in irradiated-cortisonised weanling rats that had been injected with epidermoid carcinoma tissue from the larynx of a person, but later found to be indistinguishable from HeLa cells by PCR DNA analysis), were used for the culturing of genotype A, “Long” strain RSV. Flasks were inoculated with RSV and viral stocks were collected once cytopathic effect (CPE) was greater than 90%. Viral stocks in 25% sucrose media were snap frozen using liquid nitrogen to increase viral stability. Viral stock titers were quantified by tissue culture infectious dose 50% (TCID50) using 8,000 cells per well and 3-fold viral dilutions across a 96-well plate, cultured for 4 days. Viral stock titers were also quantified by a plaque forming unit assay, as described elsewhere.
Following extensive parameter testing, the final assay is run as follows: Hep-2 cells are seeded into the inner 60 wells of a 96-well plate at 8,000 cells per well in a volume of 50 μL using Growth Media (DMEM without phenol red, 1% L-Glut, 1% Penn/Strep, 1% nonessential amino acids, 10% heat-inactivated FBS). 2-fold serial dilutions of control and test compounds are added to the wells in duplicate in a total volume of 25 μL. Viral stock is then added to the wells at a multiplicity of infection (MOI) of 0.1 in a volume of 25 μL, bringing the total volume of each well to 100 μL. The MOI is calculated using the PFU/mL, or TCID50 if unavailable. Each 96-well plate has a control column of 6 wells with cells and virus but no compound (negative control, max CPE), a column with cells but no compound or virus (positive control, minimum CPE), and a column with no cells or virus or compound (background plate/reagent control). The control wells with cells but no virus are given an additional 25 μL of growth media containing an equal quantity of sucrose as those wells receiving the viral stock in order to keep consistent in media and volume conditions. The outer wells of the plate are filled with 125 μL of moat media (DMEM, 1% Penn/Strep) to act as a thermal and evaporative moat around the test wells. Following a 5-day incubation period, the plates are read using ATPlite (50 uL added per well), which quantifies the amount of ATP (a measure of cell health) present in each well. Assay plates are read using the Envision luminometer. […] EC50 ranges are as follows: A<0.2 μM; B>0.2 μM.

[2] = system: HMPV clinical isolate A2 strain TN 94-49; test: HMPV antiviral assay, Method 2 (LLC-MK2 cells with CP-100-356, ATP-Lite); format: cell-based; conditions: human metapneumovirus; hMPV A2 TN/94-49, LLC-MK2 cells with CP-100-356, Method 2
How it was run: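 EC50 comes from a four-parameter fit of percent cell viability (ATP-Lite, normalized to virus-only and cell-only wells) after 7 days at 37 °C. Infection used HMPV A2 TN 94-49 at MOI 0.16 in LLC-MK2 cells, with 2 μM P-gp inhibitor CP-100-356 and 2 μg/mL TPCK-trypsin final; dose range 200 nM top, 2.5-fold, 10 points, duplicate.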

SMILES	pEC50 [1]	pEC50 [2]
COc1cc(C(=O)NC[C@](O)(c2cc3c(c(-c4ccc5c(c4)OC(F)(F)O5)n2)OC[C@]3(C)C(N)=O)C2CC2)cc2cc(Cl)cnc12 [Example 107]	> 6.70	> 6.70
C[C@]1(C(N)=O)COc2c1cc([C@@](O)(CNC(=O)c1cc(OC3CC3)c3ncc(Cl)cc3c1)C1CC1)nc2-c1ccc2c(c1)OC(F)(F)O2 [Example 108]	> 6.70	> 6.70
COc1cc(C(=O)NC[C@](O)(c2cc3c(c(-c4ccc(F)c(Cl)c4)n2)OC[C@]3(C)C(N)=O)C2CC2)cc2oc(C3CC3)nc12 [Example 111]	> 6.70	< 6.70
COc1cc(C(=O)NC[C@](O)(c2cc3c(c(-c4cc(F)c(F)cc4F)n2)OC[C@]3(C)C(N)=O)C2CC2)cc2cc(Cl)nnc12 [Example 114]	> 6.70	> 6.70
COc1cc(C(=O)NC[C@](O)(c2cc3c(c(-c4cc(F)c(F)cc4F)n2)OC[C@]3(C)C(N)=O)C2CC2)cn2cc(C3CC3)nc12 [Example 116]	> 6.70	> 6.70
C[C@]1(C(N)=O)COc2c1cc([C@@](O)(CNC(=O)c1cc(Cl)c3[nH]ncc3c1)C1CC1)nc2-c1cc(F)c(F)cc1F [Example 119]	> 6.70	< 6.70
COc1cc(C(=O)NC[C@](O)(c2cc3c(c(-c4ccnc(F)c4Cl)n2)OC[C@]3(C)C(N)=O)C2CC2)cc2cn(C3CC3)nc12 [Example 122]	> 6.70	> 6.70
COc1cc(C(=O)NC[C@](O)(c2cc3c(c(-c4cc(F)c(F)cc4F)n2)OC[C@]3(C)C(N)=O)C2CC(F)(F)C2)cc2cn(C3(F)CC3)nc12 [Example 123]	> 6.70	> 6.70
COc1cc(C(=O)NC[C@](O)(c2cc3c(c(-c4cc(F)c(F)cc4F)n2)OC[C@]3(C)C(N)=O)C2CC(F)(F)C2)cc2oc(C3CC3)nc12 [Example 124]	> 6.70	> 6.70
COc1cc(C(=O)NC[C@](O)(c2cc3c(c(-c4cc(F)c(F)cc4F)n2)OC[C@]3(C)C(N)=O)C2CC2)ccc1OC[C@@H](C)O [Example 125]	> 6.70	< 6.70
CNCC1([C@](O)(CNC(=O)c2cc(OC)c3nn(C4CC4)cc3c2)c2cc3c(c(-c4cc(Cl)c(F)cc4F)n2)OC[C@]3(C)C(N)=O)CC1 [Example 211]	< 6.70	< 6.70
COc1cc(C(=O)NC[C@](O)(c2cc3c(c(-c4cc(Cl)c(F)cc4F)n2)OC[C@]3(C)C(N)=O)C2(CF)CC2)cc2cn(C3CC3)nc12 [Example 212]	> 6.70	< 6.70
COc1cc(C(=O)NC[C@@](O)(CN(C)C)c2cc3c(c(-c4cc(Cl)c(F)cc4F)n2)OC[C@]3(C)C(N)=O)cc2cn(C3CC3)nc12 [Example 238]	> 6.70	< 6.70
COc1cc(C(=O)NCC(O)(CC2CC2)c2cc3c(c(-c4cc(Cl)c(F)cc4F)n2)OC[C@]3(C)C(N)=O)cc2cn(C3CC3)nc12 (stereo partly drawn) [Example 239]	> 6.70	< 6.70
COc1cc(C(=O)NC[C@@](O)(CC#N)c2cc3c(c(-c4cc(Cl)c(F)cc4F)n2)OC[C@]3(C)C(N)=O)cc2cn(C3CC3)nc12 [Example 240]	> 6.70	< 6.70
C[C@]1(C(N)=O)COc2c1cc([C@@](O)(CNC(=O)c1ccc3nc(C4CC4)oc3c1)C1CC1)nc2-c1cc(C(F)(F)F)c(F)cc1F [Example 306]	> 6.70	> 6.70
COc1cc(C(=O)NC[C@](O)(c2cc3c(c(-c4cc(C(F)(F)F)c(F)cc4F)n2)OC[C@]3(C)C(N)=O)C2CC2)cc2cn(C3(F)CC3)nc12 [Example 309]	> 6.70	> 6.70
COc1cc(C(=O)NC[C@](O)(c2cc3c(c(-c4cc(C(F)(F)F)c(F)cc4F)n2)OC[C@]3(C)C(N)=O)C2CC2)cc2cn(C(F)F)nc12 [Example 310]	> 6.70	> 6.70
COc1cc(C(=O)NC[C@](O)(c2cc3c(c(-c4ccc(F)c(Cl)c4Cl)n2)OC[C@]3(C)C(N)=O)C2CC2)cc2oc(C3CC3)nc12 [Example 318]	> 6.70	> 6.70
C[C@]1(C(N)=O)COc2c1cc([C@@](O)(CNC(=O)c1ccc3nc(C4CC4)oc3c1)C1CC1)nc2-c1ccc(F)c(Cl)c1Cl [Example 319]	> 6.70	> 6.70

SMILES	pEC50 [1]	pEC50 [2]
COc1cc(C(=O)NC[C@](O)(c2cc3c(c(-c4ccc(F)c(Cl)c4Cl)n2)OC[C@]3(C)C(N)=O)C2CC2)cc2cc(Cl)cnc12 [Example 320]	> 6.70	> 6.70
C[C@]1(C(N)=O)COc2c1cc([C@@](O)(CNC(=O)c1cc(OC3CC3)c3ncc(Cl)cc3c1)C1CC1)nc2-c1ccc(F)c(Cl)c1Cl [Example 321]	> 6.70	> 6.70
COc1cc(C(=O)NC[C@](O)(c2cc3c(c(-c4ccc(F)c(Cl)c4Cl)n2)OC[C@]3(C)C(N)=O)C2CC2)cc2cn(C3(F)CC3)nc12 [Example 322]	> 6.70	> 6.70
COc1cc(C(=O)NC[C@](O)(c2cc3c(c(-c4ccc(F)c(Cl)c4Cl)n2)OC[C@]3(C)C(N)=O)C2CC2)cc2cn(C(F)F)nc12 [Example 323]	> 6.70	> 6.70
COc1cc(C(=O)NC[C@](O)(c2cc3c(c(-c4ccc(F)c(Cl)c4Cl)n2)OC[C@]3(C)C(N)=O)C2CC2)cc2cc(C3CC3)nn12 [Example 324]	> 6.70	> 6.70
C[C@]1(C(N)=O)COc2c1cc([C@@](O)(CNC(=O)c1cc(OC3CC3)n3nc(C4CC4)cc3c1)C1CC1)nc2-c1ccc(F)c(Cl)c1Cl [Example 325]	> 6.70	> 6.70
COc1cc(C(=O)NC[C@](O)(c2cc3c(c(-c4cc(C(F)(F)F)c(F)cc4F)n2)OC[C@]3(C)C(N)=O)C2CC2)cc2cc(C3CC3)nn12 [Example 327]	> 6.70	> 6.70
COc1cc(C(=O)NC[C@@](O)(C#CC(C)(C)S(C)(=O)=O)c2cc3c(c(-c4cc(Cl)c(F)cc4F)n2)OC[C@]3(C)C(N)=O)cc2cn(C3CC3)nc12 [Example 341]	> 6.70	< 6.70
COc1cc(C(=O)NC[C@@](O)(c2ccccc2)c2cc3c(c(-c4ccnc(F)c4Cl)n2)OC[C@]3(C)C(N)=O)cc2cn(C3CC3)nc12 [Example 343]	> 6.70	> 6.70
COc1cc(C(=O)NC[C@@](O)(c2ccccc2)c2cc3c(c(-c4ccnc(F)c4Cl)n2)OC[C@]3(C)C(N)=O)cc2cn(C3(F)CC3)nc12 [Example 344]	> 6.70	> 6.70
COc1cc(C(=O)NC[C@@](O)(c2ccccc2)c2cc3c(c(-c4ccnc(F)c4Cl)n2)OC[C@]3(C)C(N)=O)cc2oc(C3CC3)nc12 [Example 345]	> 6.70	> 6.70
COc1cc(C(=O)NC[C@@](O)(c2ccccc2)c2cc3c(c(-c4ccnc(F)c4Cl)n2)OC[C@]3(C)C(N)=O)cc2cc(Cl)cnc12 [Example 346]	> 6.70	> 6.70
COc1cc(C(=O)NC[C@](O)(c2cc3c(c(-c4cc(C(F)(F)F)ncc4F)n2)OC[C@]3(C)C(N)=O)C2CC2)cc2cn(C3CC3)nc12 [Example 347]	> 6.70	> 6.70
COc1cc(C(=O)NC[C@](O)(c2cc3c(c(-c4cc(C(F)(F)F)ncc4F)n2)OC[C@]3(C)C(N)=O)C2CC2)cc2cn(C3(F)CC3)nc12 [Example 348]	> 6.70	> 6.70
COc1cc(C(=O)NC[C@](O)(c2cc3c(c(-c4cc(C(F)(F)F)ncc4F)n2)OC[C@]3(C)C(N)=O)C2CC2)cc2oc(C3CC3)nc12 [Example 349]	> 6.70	> 6.70
COc1cc(C(=O)N(C)C[C@](O)(c2cc3c(c(-c4ccc(F)c(Cl)c4)n2)OC[C@]3(C(N)=O)C(F)F)C2CC2)cc2cn(C3CC3)nc12 [Example 350]	> 6.70	< 6.70
COc1cc(C(=O)N(C)C[C@](O)(c2cc3c(c(-c4ccc(F)c(Cl)c4)n2)OC[C@@]3(C(N)=O)C(F)F)C2CC2)cc2cn(C3CC3)nc12 [Example 351]	< 6.70	< 6.70
COc1cc(C(=O)NC[C@](O)(c2cc3c(c(-c4cc(C(F)(F)F)ncc4F)n2)OC[C@]3(C)C(N)=O)C2CC2)cc2cn(C(F)F)nc12 [Example 352]	> 6.70	> 6.70
COc1cc(C(=O)NC[C@@](O)(c2cccc(F)c2)c2cc3c(c(-c4cc(F)ncc4Cl)n2)OC[C@]3(C)C(N)=O)cc2cn(C3CC3)nc12 [Example 376]	> 6.70	> 6.70
